What was measured:
[1] = Malodor counteracting effect, scale of 0 to 5; conditions: 10% in water; scale of 0 to 5, 0=none, 1=minimal effect, 5=the highest possible effect
Protocol: (ii) Malodor counteracting effect was evaluated using a scale of 0 to 5, where 0=none, 1=minimal effect and 5=the highest possible effect. High coverage of mold/mildew and sweat malodors by Compounds 1-6 (10% in water) was reported in the following: […]

[2] = Percent Reduction of Malodor Intensity; conditions: 10% in water
Text: (iii) Malodor counteracting effect of Compounds 1-6 (10% in water) was further evaluated and their respective “Percent Reduction of Malodor Intensity” was reported in the following: […]

Row | SMILES | Malodor counteracting effect, Mold/Mildew [1] | Malodor counteracting effect, Sweat [1] | Percent Reduction of Malodor Intensity, Bathroom [2] | Percent Reduction of Malodor Intensity, Mold/Mildew [2] | Percent Reduction of Malodor Intensity, Smoke [2] | Percent Reduction of Malodor Intensity, Sweat [2]
1 | COC1CCC(C(C)C)CC1 (stereo not drawn) [Compound 1, 1-methoxy-4-(methylethyl)-cyclohexane] | 4.62 | 4.51 | 92% | 88% | 84% | 83%
2 | CC(C)C(C)C(C)C(C)O (stereo not drawn) [Compound 5, 3,4,5-trimethyl-hexan-2-ol] | 4.22 | 4.47 | 92% | 80% | 83% | 85%
3 | CC(C)CC1OC(C)CCC1C(C)CC=O (stereo not drawn) [Compound 3, 3-[6-methyl-2-(2-methylpropyl)tetrahydro-2H-pyran-3-yl]butanal] | 4.08 | 4.15 | 85% | 81% | 82% | 86%
4 | CC(=O)C(C)C(C)C(C)C (stereo not drawn) [Compound 6, 3,4,5-trimethyl-hexan-2-one] | 4.04 | 4.30 | 87% | 90% | 84% | 83%
5 | CCOC1C(C)CCCC1C (stereo not drawn) [Compound 2, 2-ethoxy-1,3-dimethyl-cyclohexane] | 4.44 | 4.56 | 90% | 79% | 87% | 90%
6 | CCCCCCOC1CCC(C)(C)O1 (stereo not drawn) [Compound 4, 5-hexyloxy-2,2-dimethyl-tetrahydro-furan] | 4.27 | 4.53 | 83% | 74% | 76% | 79%

Source: US10549006B2, “High-coverage, low odor malodor counteractant compounds and methods of use” (International Flavors & Fragrances Inc., priority 2014, dated 2020)
